These results are taken from patent US10670605B2, “Cysteine reactive probes and uses thereof” (The Scripps Research Institute, priority 2015, dated 2020).

Test in all cases: Competitive isoTOP-ABPP in situ (fragment-treated cells)
Format in all cases: cell-based

Experiment [1] has as its target cysteines in MDA-MB-231 and Ramos cells (Homo sapiens, UniProt Q8IU81). The following applies: 200 μM, insitu, 231.
Experiment [2] addresses T1, cysteines in MDA-MB-231 and Ramos cells (Homo sapiens, UniProt Q8N2W9).
T1 sequence (Q8N2W9 1-510): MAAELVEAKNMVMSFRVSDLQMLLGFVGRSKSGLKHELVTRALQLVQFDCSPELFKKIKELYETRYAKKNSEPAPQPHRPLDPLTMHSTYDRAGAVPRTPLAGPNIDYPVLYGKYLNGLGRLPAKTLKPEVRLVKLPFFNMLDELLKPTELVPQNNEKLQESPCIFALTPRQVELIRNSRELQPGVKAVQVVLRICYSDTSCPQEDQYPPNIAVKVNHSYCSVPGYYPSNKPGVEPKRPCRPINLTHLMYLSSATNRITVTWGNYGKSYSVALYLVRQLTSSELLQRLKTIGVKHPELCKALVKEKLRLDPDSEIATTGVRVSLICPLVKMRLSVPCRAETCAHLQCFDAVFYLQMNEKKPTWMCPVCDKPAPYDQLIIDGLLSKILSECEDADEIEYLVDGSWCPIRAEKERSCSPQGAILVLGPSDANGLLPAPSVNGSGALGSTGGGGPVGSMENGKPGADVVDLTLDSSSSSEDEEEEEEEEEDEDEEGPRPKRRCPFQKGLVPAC
As to conditions: 200 μM, insitu.

For experiment [3], the target named is T2, cysteines in MDA-MB-231 and Ramos cells (Homo sapiens, UniProt Q02556).
T2 sequence (Q02556 1-426): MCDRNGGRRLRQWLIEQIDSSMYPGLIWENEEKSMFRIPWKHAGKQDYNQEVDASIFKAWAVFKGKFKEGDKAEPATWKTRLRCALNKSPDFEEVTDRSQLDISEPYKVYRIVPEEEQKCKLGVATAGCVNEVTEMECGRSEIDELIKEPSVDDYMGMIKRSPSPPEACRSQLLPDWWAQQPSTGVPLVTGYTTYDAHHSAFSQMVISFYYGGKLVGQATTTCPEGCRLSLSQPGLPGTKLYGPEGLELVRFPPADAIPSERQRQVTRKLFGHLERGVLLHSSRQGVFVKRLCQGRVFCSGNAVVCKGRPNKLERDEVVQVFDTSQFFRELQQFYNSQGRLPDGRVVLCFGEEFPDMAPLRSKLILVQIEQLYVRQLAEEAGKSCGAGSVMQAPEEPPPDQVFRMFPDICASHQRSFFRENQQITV
As to conditions: 200 μM, insitu, ramos.

The target in experiment [4] is T3, cysteines in MDA-MB-231 and Ramos cells (Homo sapiens, UniProt Q8N5L8).
T3 sequence (Q8N5L8 1-163): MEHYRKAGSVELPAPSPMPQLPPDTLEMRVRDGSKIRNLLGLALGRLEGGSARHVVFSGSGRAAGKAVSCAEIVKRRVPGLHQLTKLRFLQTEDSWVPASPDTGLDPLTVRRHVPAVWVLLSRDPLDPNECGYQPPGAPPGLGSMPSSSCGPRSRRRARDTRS
As to conditions: 200 μM, insitu, 231.

In experiment [5] the target is T4, cysteines in MDA-MB-231 and Ramos cells (Homo sapiens, UniProt Q8TD19).
T4 sequence (Q8TD19 1-979): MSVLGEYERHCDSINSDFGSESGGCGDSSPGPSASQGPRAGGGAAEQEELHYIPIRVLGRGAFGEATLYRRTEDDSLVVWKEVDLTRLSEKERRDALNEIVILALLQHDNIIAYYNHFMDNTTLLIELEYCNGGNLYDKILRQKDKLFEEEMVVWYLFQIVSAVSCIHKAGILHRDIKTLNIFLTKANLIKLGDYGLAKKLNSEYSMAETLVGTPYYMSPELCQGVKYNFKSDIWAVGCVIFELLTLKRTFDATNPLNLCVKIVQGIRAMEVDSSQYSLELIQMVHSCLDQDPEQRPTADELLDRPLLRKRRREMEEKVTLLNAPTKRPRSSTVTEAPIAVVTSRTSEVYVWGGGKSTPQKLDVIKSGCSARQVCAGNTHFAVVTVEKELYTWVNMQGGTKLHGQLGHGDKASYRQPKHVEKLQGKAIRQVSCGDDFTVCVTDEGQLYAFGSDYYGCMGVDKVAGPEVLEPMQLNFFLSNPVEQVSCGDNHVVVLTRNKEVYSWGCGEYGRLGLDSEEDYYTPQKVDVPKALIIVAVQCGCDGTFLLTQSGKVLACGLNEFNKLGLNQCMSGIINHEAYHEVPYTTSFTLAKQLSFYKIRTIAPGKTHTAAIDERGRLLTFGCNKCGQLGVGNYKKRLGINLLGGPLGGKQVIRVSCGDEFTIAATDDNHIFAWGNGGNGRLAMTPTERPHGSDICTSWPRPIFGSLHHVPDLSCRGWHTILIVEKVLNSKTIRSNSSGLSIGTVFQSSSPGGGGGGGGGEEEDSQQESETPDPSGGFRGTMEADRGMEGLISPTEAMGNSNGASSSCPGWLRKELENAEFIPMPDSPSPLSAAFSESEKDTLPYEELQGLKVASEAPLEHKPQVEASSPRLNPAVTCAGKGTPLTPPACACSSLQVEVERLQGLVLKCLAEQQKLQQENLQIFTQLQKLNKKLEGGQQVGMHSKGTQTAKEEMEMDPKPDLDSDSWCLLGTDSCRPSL
The following applies: 200 μM, insitu.

Experiment [6] has as its target T5, cysteines in MDA-MB-231 and Ramos cells (Homo sapiens, UniProt Q8IZ73).
T5 sequence (Q8IZ73 1-545): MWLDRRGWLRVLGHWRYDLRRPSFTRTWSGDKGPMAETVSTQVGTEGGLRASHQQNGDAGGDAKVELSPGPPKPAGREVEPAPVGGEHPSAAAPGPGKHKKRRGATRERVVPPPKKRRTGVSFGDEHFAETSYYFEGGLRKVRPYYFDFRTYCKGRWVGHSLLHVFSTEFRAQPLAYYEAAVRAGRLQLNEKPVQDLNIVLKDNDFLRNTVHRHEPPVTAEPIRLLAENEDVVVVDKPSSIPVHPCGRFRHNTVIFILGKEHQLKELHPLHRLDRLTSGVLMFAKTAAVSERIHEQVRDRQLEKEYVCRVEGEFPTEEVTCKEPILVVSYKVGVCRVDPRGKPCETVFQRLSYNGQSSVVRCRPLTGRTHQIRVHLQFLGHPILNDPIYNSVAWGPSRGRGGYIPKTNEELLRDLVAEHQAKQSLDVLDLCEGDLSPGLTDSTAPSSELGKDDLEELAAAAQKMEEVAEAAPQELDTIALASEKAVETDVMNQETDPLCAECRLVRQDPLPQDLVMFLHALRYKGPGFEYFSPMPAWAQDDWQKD
The following applies: 200 μM, insitu.

Sequence of cysteines in MDA-MB-231 and Ramos cells (Homo sapiens, UniProt Q8IU81) (Q8IU81 whole entry): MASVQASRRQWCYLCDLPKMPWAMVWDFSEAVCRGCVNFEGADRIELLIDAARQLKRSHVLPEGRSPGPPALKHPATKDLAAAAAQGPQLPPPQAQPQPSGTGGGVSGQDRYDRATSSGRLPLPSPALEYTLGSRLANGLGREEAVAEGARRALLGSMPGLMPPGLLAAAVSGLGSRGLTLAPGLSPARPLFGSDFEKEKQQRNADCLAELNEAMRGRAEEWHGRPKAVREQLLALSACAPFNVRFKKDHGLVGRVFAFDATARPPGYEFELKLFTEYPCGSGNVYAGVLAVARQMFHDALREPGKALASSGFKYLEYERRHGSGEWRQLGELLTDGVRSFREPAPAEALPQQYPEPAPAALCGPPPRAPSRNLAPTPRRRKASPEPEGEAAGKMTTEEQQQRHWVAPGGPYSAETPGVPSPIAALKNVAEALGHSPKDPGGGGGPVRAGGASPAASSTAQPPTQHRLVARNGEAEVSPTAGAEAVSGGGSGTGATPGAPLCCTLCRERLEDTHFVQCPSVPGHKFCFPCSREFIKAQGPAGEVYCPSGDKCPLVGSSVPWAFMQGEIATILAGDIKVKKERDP

Turning to `O=C(CCl)N1CCN(S(=O)(=O)c2ccccc2F)CC1` [compound 10], in experiment [1], the “isoTOP-ABPP ratio, cysteine Q8IU81_C363” value was 5.9. For the same molecule, the “isoTOP-ABPP ratio, cysteine Q8N2W9_C326” value in experiment [2] (231) is on record as 4.5.

`O=C(CCl)NCCc1c[nH]c2ccccc12` [compound 13]: in experiment [3], the “isoTOP-ABPP ratio, cysteine Q02556_C306” value is listed as 1.5. In experiment [2] (ramos), the “isoTOP-ABPP ratio, cysteine Q8N2W9_C326” value came out at 20.0. In experiment [4], the “isoTOP-ABPP ratio, cysteine Q8N5L8_C131” value is on record as 1.2. Besides, the “isoTOP-ABPP ratio, cysteine Q8TD19_C623” value in experiment [5] (ramos) is 20.0.

On to `O=C(CCl)NC12CC3CC(CC(C3)C1)C2` [compound 21], for which the “isoTOP-ABPP ratio, cysteine Q8IZ73_C246” value in experiment [6] (231) amounted to 1.8. Moreover, the “isoTOP-ABPP ratio, cysteine Q8N2W9_C326” value in experiment [2] (231) is 1.0. Also, the “isoTOP-ABPP ratio, cysteine Q8N5L8_C131” value in experiment [4] came out at 0.8. Besides, the “isoTOP-ABPP ratio, cysteine Q8TD19_C623” value in experiment [5] (231) is listed as 0.8.

Regarding `O=C(CCl)N1CCN(CC(=O)N2CCOCC2)CC1` [compound 29], in experiment [3], the “isoTOP-ABPP ratio, Q02556_C306” value was 1.4.

Consider `C=CC(=O)N(Cc1cccnc1)c1cc(C(F)(F)F)cc(C(F)(F)F)c1` [compound 31], for which the “isoTOP-ABPP ratio Q8IZ73_C246” value in experiment [6] (231) is 0.4; in experiment [6] (ramos), 1.0. Besides, the “isoTOP-ABPP ratio, Q02556_C306” value in experiment [3] is listed as 2.0. For the same molecule, in experiment [1], the “isoTOP-ABPP ratio Q8IU81_C363” value turned out to be 0.7. Further, the “isoTOP-ABPP ratio Q8TD19_C623” value in experiment [5] (231) turned out to be 0.7; in experiment [5] (ramos) it was 1.4.

In the case of `C=CC(=O)Nc1cc(F)c(N2CCN(C(=O)OC(C)(C)C)CC2)c(F)c1` [compound 38], the “isoTOP-ABPP ratio Q8IZ73_C246” value in experiment [6] (231) was 1.7. Moreover, the “isoTOP-ABPP ratio Q8IU81_C363” value in experiment [1] is 1.3. The “isoTOP-ABPP ratio Q8N2W9_C326” value in experiment [2] (231) turned out to be 0.9.

For the molecule `Cc1ccc(C=C(C#N)C(=O)NCCN2CCOCC2)cc1` [compound 41], in experiment [2] (231), the “isoTOP-ABPP ratio Q8N2W9_C326” value came out at 0.8. The “isoTOP-ABPP ratio Q8TD19_C623” value in experiment [5] (231) is recorded as 0.6.

As to `CC1CCc2ccccc2N1C(=O)CCl` (stereo not drawn) [compound 45], the “isoTOP-ABPP ratio Q8IU81_C363” value in experiment [1] came out at 1.7. Besides, the “isoTOP-ABPP ratio Q8N5L8_C131” value in experiment [4] was 7.3.
